Broadly, the IC50 is the point on the concentration scale where inhibition reaches its midpoint.

The target in one assay is T1, humanized OX2 receptor (Homo sapiens, UniProt O43614).
T1 construct: expressed in transfected cells; host or cells: HEK-293 cells
T1 sequence (O43614 1-444): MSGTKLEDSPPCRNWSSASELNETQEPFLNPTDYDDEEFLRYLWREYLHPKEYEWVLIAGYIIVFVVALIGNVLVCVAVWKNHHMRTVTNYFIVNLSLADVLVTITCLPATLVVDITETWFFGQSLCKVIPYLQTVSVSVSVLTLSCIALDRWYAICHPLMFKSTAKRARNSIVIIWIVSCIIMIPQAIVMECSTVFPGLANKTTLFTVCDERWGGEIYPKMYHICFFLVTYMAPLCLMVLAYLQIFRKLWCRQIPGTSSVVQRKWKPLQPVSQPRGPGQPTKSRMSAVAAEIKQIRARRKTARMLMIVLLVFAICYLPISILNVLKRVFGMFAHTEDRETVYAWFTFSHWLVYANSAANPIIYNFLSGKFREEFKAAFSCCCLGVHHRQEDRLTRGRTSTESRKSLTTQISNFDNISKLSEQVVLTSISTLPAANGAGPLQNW
In words: Antagonistic effect on humanized OX2 receptor, calcium flux by fluorescence detection in HEK-293 cells. Particulars: HEK-293 cells, calcium flux induced by 10 nM orexin B; read-out: OX2 IC50. Format: cell-based. The method, then: The capability of the compounds provided herein to antagonize humanized OX2 receptors expressed in HEK-293 cells was evaluated by the influence of the compounds disclosed herein on calcium flux in cells induced by agonist detected by a method of fluorescence detection. The cells were suspended in DMEM culture medium (invitrogen), and then added to a microplate with an average density of 3×10^4 cells/well. The Hank's balanced salt solution (pH 7.4) containing fluorescent probes (Fluo4 NW, Invitrogen), probenecid (invitrogen), 20 mM […] (invitrogen) was added to the above microplate, and then incubated together with the cells at 37° C. for 60 min, further incubated at 22° C. for 15 min. The microplate was placed in a microplate reader (CellLux, PerkinElmer), and to which was added the test compound or reference antagonist or Hank's balanced salt solution, 5 min later, 10 nM of orexin B or Hank's balanced salt solution (as a blank contrast) was added. […] The experimental results were expressed as an inhibition percentage relative to a control group (the group with 10 nM of orexin B).
The standard reference antagonist is JNJ10397049, and IC50 values were calculated by the dose-effect curve obtained from a series of concentrations of the experimental test.
(A change in cytosolic calcium serves as a functional read-out for many receptors and channels.)

The target of another assay is T2, hERG channel (Homo sapiens, UniProt Q12809).
T2 construct: purchased Invitrogen
Put plainly: hERG fluorescence polarization assay (potential of inducing QT interval prolongation). Format: binding. As for the experimental part: The potential of the compound disclosed herein inducing QT interval prolongation was evaluated by detecting if the compound would block the hERG channel. The specific test method is as follows:
Precisely weighed compound disclosed herein was dissolved in DMSO to formulate a solution at the highest concentration of 10.0 mM, and then the solution was diluted to a initial concentration of 120.0 μM with hERG FP Assay Buffer (Invitrogen); the hERG Tracer Red stock solution (Invitrogen) and the positive control E-4031 stock solution (Invitrogen) were respectively diluted to initial concentrations of 4.0 nM and 120.0 μM with hERG FP Assay Buffer (Invitrogen). […]
The above-mentioned solution of the compound disclosed herein and E-4031 at the initial concentration of 120 μM were respectively diluted with hERG FP Assay Buffer 5-fold in series to provide 8 concentration of 120.0 μM, 24.0 μM, 4.8 μM, 960.0 nM, 192.0 nM, 38.4 nM, 7.7 nM and 1.5 nM. […] After that, the 384-well plate was put into an oscillator (PHMP-4, Grant-sio), in 25° C., 250 rpm, to incubate for 4 hours, and the fluorescence polarization values were measured by multi-function microplate reader (PHERAStarFS, BMG LABTECH) and corrected with the minimum and maximum fluorescence polarization values of E-4031, and the IC50 of the compound disclosed herein was calculated by GraphPad software. […]
For orientation: The hERG channel carries a current that helps repolarise heart muscle cells.

T2 sequence (Q12809 whole entry): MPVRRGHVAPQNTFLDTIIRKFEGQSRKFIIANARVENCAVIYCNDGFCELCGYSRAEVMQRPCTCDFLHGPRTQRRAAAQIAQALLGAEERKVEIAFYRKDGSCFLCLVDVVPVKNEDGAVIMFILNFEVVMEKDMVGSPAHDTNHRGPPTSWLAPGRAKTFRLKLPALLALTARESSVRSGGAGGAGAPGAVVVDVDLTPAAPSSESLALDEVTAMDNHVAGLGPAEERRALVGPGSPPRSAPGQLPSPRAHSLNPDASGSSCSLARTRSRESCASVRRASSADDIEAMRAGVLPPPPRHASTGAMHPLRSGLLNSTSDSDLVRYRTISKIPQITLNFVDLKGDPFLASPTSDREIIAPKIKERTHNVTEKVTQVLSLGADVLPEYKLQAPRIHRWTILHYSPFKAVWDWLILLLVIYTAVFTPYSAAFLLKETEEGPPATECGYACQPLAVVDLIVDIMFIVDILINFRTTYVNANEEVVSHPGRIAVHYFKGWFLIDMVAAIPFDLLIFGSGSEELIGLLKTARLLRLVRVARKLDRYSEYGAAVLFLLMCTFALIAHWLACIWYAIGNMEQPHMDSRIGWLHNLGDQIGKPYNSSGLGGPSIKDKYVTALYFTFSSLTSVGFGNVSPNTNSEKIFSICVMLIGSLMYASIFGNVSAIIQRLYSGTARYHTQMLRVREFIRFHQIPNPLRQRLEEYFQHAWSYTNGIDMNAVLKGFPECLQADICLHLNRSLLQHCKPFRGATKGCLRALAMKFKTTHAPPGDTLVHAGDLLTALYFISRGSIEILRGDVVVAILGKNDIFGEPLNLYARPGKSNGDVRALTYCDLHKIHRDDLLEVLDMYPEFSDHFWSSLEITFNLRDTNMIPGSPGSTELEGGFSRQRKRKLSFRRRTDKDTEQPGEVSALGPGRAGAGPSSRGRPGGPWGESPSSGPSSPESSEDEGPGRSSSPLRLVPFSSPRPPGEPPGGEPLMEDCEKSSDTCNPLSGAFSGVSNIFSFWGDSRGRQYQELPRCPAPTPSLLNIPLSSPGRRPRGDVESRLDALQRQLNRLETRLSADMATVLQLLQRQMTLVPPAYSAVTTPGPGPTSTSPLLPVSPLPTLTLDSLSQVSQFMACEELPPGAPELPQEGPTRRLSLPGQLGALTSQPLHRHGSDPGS

`Cc1ccc(-n2nccn2)c(C(=O)N2CC3CN(c4nc5cc(Cl)ccc5o4)CC3C2)c1` (centres unmarked) [Example 1, (5-(5-chlorobenzo[d]oxazol-2-yl)hexahydropyrrolo[3,4-c]pyrrol-2(1H)-yl)(5-methyl-2-(2H-1,2,3-triazol-2-yl)phenyl)methanone]: the figures for the IC50 on humanized OX2 receptor and against hERG channel were 308 nM and 3280 nM, respectively.

(Values after patent publication US10370380B2, “Octahydropyrrolo[3,4-c]pyrrole derivatives and uses thereof” (Sunshine Lake Pharma Co., Ltd., priority 2015, dated 2019).)
